Results from ChEMBL document CHEMBL1201862, “PubChem BioAssay data set” (2004).
Activity calls are given as the source filed them.

Key:
Protein RecA = target: T1, Protein RecA (Mycobacterium tuberculosis, UniProt P9WHJ3); test: Fluorescence Cell-Free Homogeneous Dose Retest to Identify Inhibitors of RecA-Intein Splicing Activity. [Related pubchem assays (depositor defined):AID2097, AID2223, AID489010, AID492950]; format: functional
T1 sequence (P9WHJ3 whole entry): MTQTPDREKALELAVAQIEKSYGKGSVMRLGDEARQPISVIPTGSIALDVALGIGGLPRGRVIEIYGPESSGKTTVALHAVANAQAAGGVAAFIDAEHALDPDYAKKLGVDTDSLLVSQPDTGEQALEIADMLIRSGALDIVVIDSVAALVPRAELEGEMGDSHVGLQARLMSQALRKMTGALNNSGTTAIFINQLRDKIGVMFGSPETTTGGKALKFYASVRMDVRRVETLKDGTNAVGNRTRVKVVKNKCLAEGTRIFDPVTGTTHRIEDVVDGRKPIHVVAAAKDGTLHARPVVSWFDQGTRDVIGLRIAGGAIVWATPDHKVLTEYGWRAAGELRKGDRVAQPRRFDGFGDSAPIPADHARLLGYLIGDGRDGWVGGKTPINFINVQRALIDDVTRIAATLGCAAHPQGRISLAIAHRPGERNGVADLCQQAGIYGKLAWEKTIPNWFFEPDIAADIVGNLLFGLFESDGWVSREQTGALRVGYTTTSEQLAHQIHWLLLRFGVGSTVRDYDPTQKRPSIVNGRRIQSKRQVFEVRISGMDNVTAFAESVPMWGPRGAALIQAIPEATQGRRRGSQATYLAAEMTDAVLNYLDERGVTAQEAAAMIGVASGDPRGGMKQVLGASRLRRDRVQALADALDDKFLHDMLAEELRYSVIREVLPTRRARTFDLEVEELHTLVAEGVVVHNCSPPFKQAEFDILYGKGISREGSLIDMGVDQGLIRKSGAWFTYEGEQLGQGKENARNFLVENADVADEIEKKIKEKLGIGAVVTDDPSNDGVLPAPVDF

[1] = target: T2, Replicative DNA helicase DnaB (Mycobacterium tuberculosis, UniProt P9WMR3); test: DnaB intein splicing inhibitors, dose response, biochemical, cell-free fluorescence (AID 449749); format: functional
T2 sequence (P9WMR3 whole entry): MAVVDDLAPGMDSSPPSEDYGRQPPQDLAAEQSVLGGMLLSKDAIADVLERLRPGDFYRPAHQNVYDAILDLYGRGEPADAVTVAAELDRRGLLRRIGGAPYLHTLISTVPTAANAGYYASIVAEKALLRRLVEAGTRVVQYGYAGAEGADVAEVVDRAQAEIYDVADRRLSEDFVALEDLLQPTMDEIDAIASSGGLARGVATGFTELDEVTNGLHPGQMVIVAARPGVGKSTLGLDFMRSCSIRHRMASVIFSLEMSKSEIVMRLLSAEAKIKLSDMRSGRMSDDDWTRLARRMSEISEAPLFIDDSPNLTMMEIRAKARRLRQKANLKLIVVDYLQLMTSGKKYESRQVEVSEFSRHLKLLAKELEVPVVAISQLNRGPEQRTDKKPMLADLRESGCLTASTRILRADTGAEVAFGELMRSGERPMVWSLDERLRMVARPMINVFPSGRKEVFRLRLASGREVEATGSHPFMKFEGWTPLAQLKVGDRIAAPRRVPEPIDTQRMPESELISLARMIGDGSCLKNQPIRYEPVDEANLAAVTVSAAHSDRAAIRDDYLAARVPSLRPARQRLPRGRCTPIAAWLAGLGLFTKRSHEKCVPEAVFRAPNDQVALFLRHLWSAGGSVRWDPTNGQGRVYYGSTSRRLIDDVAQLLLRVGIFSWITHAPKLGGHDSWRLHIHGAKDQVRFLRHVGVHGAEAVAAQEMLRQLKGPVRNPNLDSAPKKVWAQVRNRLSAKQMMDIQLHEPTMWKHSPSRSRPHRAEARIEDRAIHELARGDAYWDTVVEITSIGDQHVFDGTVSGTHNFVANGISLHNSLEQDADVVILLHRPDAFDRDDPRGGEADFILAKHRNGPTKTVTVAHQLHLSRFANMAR

Cytochrome P450 2D6 = Cytochrome P450 2D6 (Homo sapiens, UniProt P10635);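 note: CYP2D6 member of a cytochrome P450 panel assay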
Cytochrome P450 1A2 = target: T3, Cytochrome P450 1A2 (Homo sapiens, UniProt P05177);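 note: PubChem cytochrome P450 panel assay, CYP1A2 panel member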
T3 sequence (P05177 whole entry): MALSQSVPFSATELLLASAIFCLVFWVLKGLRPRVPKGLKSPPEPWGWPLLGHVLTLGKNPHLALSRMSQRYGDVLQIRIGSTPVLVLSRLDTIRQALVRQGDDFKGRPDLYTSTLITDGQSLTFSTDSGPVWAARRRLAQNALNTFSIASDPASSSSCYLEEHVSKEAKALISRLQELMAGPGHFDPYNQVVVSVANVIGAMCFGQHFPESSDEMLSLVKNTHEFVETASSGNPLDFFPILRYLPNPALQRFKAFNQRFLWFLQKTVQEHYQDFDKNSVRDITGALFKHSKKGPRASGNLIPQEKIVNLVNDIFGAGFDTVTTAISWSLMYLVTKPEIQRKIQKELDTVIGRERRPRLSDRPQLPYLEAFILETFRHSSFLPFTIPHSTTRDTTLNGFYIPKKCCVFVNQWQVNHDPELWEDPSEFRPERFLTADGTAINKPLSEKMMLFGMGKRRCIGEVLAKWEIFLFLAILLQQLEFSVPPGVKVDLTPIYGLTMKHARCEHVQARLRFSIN

Cytochrome P450 3A4 = Cytochrome P450 3A4 (Homo sapiens, UniProt P08684);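 note: CYP3A4 tested as one member of a cytochrome P450 panel screen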
[2] = target: T4, Heat shock factor protein 1 (Mus musculus, UniProt P38532); test: inhibition of MG132-induced HSE-luciferase signal, confirmation, cell-based, NIH3T3, luminescence, dose retest (AID 2382); format: functional;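 note: NIH3T3 fibroblasts with HSF1-driven luciferase reporter stressed by proteasome inhibitor MG132; luminescence from HSF1-driven luciferase expression after 8 hours of MG132 stress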
T4 sequence (P38532 whole entry): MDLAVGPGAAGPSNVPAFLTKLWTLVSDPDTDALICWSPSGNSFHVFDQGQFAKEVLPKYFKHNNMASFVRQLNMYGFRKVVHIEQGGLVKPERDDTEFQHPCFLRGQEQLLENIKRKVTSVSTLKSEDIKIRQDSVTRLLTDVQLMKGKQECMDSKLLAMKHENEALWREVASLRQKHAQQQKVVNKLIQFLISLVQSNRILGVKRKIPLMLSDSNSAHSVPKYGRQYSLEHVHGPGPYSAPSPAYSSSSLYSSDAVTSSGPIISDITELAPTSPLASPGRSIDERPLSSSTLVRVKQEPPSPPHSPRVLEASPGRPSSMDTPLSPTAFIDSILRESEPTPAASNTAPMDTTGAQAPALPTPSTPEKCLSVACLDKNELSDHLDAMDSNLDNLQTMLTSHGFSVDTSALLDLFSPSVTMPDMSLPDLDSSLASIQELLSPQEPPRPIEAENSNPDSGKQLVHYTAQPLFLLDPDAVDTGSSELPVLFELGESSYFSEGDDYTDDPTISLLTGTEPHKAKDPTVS

INS1 = test: beta cell apoptosis inhibitors, cytokine rescue, dose response, luminescence, retest (AID 449756); format: functional, cell-based; conditions: Rattus norvegicus;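 note: cell death triggered by IL-1 beta plus TNF-alpha plus IFN-gamma mixture; protective hits raise ATP signal compared with cytokine alone wells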
[3] = target: T5, Corticotropin-releasing factor receptor 2/Corticotropin-releasing factor-binding protein (Homo sapiens, UniProt P24387+Q13324); test: activators of CRF receptor 2 with binding protein – uHTS hits, confirmation (AID 602473); format: functional; conditions: read-out: EC50_Mean
T5 sequence (Q13324 whole entry): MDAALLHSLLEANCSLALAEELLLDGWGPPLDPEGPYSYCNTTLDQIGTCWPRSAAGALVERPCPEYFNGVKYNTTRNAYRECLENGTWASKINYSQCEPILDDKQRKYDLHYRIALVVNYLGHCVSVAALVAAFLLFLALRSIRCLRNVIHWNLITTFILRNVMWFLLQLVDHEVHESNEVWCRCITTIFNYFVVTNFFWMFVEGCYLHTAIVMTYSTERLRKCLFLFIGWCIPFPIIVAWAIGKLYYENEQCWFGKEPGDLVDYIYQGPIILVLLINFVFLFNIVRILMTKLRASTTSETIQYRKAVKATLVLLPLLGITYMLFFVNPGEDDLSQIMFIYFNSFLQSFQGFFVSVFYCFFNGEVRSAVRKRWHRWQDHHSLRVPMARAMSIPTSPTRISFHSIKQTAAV
T5 sequence (P24387 whole entry): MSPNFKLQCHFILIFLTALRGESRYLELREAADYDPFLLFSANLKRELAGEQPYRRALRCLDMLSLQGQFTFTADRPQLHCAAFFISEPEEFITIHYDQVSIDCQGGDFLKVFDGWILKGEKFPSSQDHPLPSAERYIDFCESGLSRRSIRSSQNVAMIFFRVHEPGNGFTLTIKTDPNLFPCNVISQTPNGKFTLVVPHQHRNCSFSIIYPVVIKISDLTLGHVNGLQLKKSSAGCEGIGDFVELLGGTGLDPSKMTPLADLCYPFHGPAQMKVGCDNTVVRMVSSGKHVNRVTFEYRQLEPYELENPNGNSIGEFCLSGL

[4] = target: T5, Corticotropin-releasing factor receptor 2/Corticotropin-releasing factor-binding protein; test: Dose Response confirmation of uHTS hits for small molecule antagonists of the CRF-binding protein and CRF-R2 receptor complex.; format: functional; conditions: read-out: IC50_Mean
Cytochrome P450 2C9 = Cytochrome P450 2C9 (Homo sapiens, UniProt P11712)
Cytochrome P450 2C19 = Cytochrome P450 2C19 (Homo sapiens, UniProt P33261); test: Cytochrome panel assay with activity outcomes. Panel member name: p450-cyp2c19 Compounds with AC50 equal or less than 10 uM are considered active; format: functional; conditions: read-out: AC50
Cytochrome P450 2C19, sequence (P33261 whole entry): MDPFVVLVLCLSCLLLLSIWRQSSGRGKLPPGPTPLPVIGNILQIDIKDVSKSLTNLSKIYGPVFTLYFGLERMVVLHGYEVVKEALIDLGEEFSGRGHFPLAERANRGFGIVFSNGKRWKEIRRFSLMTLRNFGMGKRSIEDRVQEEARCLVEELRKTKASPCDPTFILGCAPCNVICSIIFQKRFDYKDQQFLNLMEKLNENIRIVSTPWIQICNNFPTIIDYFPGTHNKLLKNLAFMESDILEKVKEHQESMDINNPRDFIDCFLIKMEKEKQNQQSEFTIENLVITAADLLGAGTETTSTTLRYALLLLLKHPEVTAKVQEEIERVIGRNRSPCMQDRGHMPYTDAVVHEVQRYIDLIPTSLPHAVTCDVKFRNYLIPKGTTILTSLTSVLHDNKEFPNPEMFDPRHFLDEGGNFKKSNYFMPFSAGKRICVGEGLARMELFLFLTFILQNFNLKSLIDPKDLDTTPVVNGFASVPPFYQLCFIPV

Cytochrome P450 2C9, sequence (P11712 whole entry): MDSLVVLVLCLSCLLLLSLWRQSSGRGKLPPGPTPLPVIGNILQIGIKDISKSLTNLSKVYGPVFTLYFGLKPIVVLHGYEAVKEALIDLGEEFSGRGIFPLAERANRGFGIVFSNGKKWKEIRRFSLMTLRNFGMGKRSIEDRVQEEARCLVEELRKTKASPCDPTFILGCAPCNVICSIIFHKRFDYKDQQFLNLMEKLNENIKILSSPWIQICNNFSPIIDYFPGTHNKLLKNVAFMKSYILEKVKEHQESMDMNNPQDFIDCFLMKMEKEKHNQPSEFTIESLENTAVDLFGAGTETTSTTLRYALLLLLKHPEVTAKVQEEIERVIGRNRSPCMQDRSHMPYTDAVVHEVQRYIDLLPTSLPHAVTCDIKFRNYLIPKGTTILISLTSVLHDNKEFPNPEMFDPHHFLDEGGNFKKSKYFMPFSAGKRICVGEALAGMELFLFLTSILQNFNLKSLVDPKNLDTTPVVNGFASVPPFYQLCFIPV
Cytochrome P450 3A4, sequence (P08684 whole entry): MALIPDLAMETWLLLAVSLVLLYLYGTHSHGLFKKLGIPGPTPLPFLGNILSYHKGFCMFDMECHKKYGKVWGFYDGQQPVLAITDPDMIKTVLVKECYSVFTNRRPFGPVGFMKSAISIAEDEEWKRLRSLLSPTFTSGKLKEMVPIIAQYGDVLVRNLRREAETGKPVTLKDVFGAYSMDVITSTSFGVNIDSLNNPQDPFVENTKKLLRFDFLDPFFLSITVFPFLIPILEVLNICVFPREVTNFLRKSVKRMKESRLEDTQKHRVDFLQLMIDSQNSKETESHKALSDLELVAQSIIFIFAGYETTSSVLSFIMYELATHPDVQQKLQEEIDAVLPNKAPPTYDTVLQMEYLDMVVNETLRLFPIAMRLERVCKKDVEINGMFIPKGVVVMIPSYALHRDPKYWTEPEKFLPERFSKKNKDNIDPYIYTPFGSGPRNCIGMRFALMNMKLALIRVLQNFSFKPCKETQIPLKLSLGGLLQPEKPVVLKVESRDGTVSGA
Cytochrome P450 2D6, sequence (P10635 whole entry): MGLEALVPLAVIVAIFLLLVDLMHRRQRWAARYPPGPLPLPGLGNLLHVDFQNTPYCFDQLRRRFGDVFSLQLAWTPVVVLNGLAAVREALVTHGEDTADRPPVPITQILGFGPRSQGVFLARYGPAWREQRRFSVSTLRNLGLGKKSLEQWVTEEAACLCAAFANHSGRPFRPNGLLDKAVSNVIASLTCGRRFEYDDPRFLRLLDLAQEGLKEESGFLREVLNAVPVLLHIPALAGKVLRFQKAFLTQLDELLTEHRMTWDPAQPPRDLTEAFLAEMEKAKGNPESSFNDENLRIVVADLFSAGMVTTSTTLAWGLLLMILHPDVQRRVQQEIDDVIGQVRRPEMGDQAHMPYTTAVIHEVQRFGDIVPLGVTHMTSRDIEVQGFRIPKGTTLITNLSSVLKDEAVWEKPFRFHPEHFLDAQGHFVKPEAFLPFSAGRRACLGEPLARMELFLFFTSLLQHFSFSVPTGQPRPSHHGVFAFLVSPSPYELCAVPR

## CCOc1ccccc1N1CCN(C(=O)c2ccc(-c3ccc(OC(C)=O)cc3)cc2)CC1
Protein RecA
  EC50: 58.4 µM (active)
[1]
  AC50: 2.31 µM (active)

## c1ccc(N2CC[C@@]3(CCCNC3)C2)cc1
Cytochrome P450 2D6
  AC50: 10 µM (inconclusive)
Cytochrome P450 1A2
  AC50: 39.8 µM (inconclusive)
Cytochrome P450 3A4
  AC50: 20 µM (inconclusive)

## C=CCOc1c2ccc(C(=O)NC3CCCc4ccccc43)cc2nn1C (configuration not stated)
Cytochrome P450 2D6
  AC50: 22.4 µM (inconclusive)
Cytochrome P450 1A2
  AC50: 15.8 µM (inconclusive)

## O=C(Nc1ccccc1NC(=O)c1csnn1)c1csnn1
[2]
  EC50: > 195 µM (not active)

## COc1cc(OC)cc(C2C(C#N)=C(N)Oc3[nH]nc(-c4cccnc4)c32)c1 (configuration not stated)
Protein RecA
  EC50: 2.13 µM (active)
[1]
  AC50: 18 µM (active)

## C=CCn1c(SCC(=O)N2CCc3ccccc3C2)nc2sc(C)c(C)c2c1=O
[2]
  EC50: > 195 µM (not active)

## Cc1cc(C)nc(N=C(N)Nc2ccc3c(c2)OCCO3)n1
[2]
  EC50: > 195 µM (not active)

## COc1ccc(-c2ccnc(SCC(=O)N3CCN(c4ccccc4)CC3)n2)cc1
INS1
  AC50: > 260 µM (inactive)
[3]
  EC50: > 53 µM (inactive)
[4]
  IC50: > 47.1 µM (inactive)

## O=C(c1ccc(Cl)cc1)n1cnc2ccccc21
Protein RecA
  EC50: 8.13 µM (active)
[1]
  AC50: 7.49 µM (active)

## CCC(C)NC(=O)c1ccccc1NC(=O)Nc1ccccc1 (configuration not stated)
Cytochrome P450 1A2
  AC50: 3.16 µM (inconclusive)
Cytochrome P450 2C9
  AC50: 15.8 µM (inconclusive)

## CNc1ncncc1-c1ccccc1OC
Cytochrome P450 1A2
  AC50: 1.58 µM (inconclusive)
Cytochrome P450 3A4
  AC50: 0.251 µM (inconclusive)

## Cc1ccc(C(=O)N2CCCC(Nc3ccc(F)cc3)C2)cc1C (configuration not stated)
[2]
  EC50: > 195 µM (not active)

## COc1ccc(N2CCN(c3ccc(NC(=O)NN)cc3)CC2)cc1
[2]
  EC50: > 195 µM (not active)

## N#CC(c1ccccc1F)(c1ncc(C(F)(F)F)cc1Cl)N1CCOCC1 (configuration not stated)
Cytochrome P450 1A2
  AC50: 25.1 µM (inconclusive)
Cytochrome P450 3A4
  AC50: 22.4 µM (inconclusive)
Cytochrome P450 2C9
  AC50: 31.6 µM (inconclusive)

## Cc1cc(C)cc(C(=O)OC2C[C@H]3CC[C@@H](C2)N3C)c1 (some centres not stated)
Cytochrome P450 2C19
  AC50: 39.8 µM (inconclusive)
Cytochrome P450 1A2
  AC50: 25.1 µM (inconclusive)

## Cn1cnnc1SCC(=O)OCN1C(=O)c2ccccc2C1=O
Cytochrome P450 2C19
  AC50: 10 µM (inconclusive)
Cytochrome P450 1A2
  AC50: 25.1 µM (inconclusive)

## Cc1nn(-c2ccccc2)c(C)c1NC(=O)COc1ccc(Br)cc1Cl
INS1
  AC50: 34.2 µM (active)

## O=[N+]([O-])c1ccc2c(c1)N=C1O[C@H](c3ccc([C@H]4OC5=Nc6cc([N+](=O)[O-])ccc6NC5=C4O)cc3)C(O)=C1N2
Cytochrome P450 1A2
  AC50: 3.16 µM (inconclusive)
Cytochrome P450 3A4
  AC50: 3.16 µM (inconclusive)

## O=C(Cn1nnc2ccccc21)NNC(=S)NC1CCCCC1
[2]
  EC50: > 195 µM (not active)

## O=c1c(-c2cc(F)cc(F)c2)nc2cnc(N3CCNCC3)nc2n1Cc1cccs1
Cytochrome P450 2C19
  AC50: 39.8 µM (inconclusive)
Cytochrome P450 1A2
  AC50: 2.51 µM (inconclusive)

## CCOC(=O)Cc1n[nH]c2c1C(c1ccoc1)C(C#N)=C(N)O2 (configuration not stated)
Protein RecA
  EC50: 3.42 µM (active)
[1]
  AC50: 18.4 µM (active)

## COC(=O)c1ccc(Cn2nnc3c(O)nc(C4CCN(S(=O)(=O)c5ccc(F)cc5)CC4)nc32)cc1
[2]
  EC50: > 195 µM (not active)

## CCOC(=O)c1ccc(Nc2[nH]cnc3ncnc2-3)cc1
[2]
  EC50: > 195 µM (not active)

## COc1cccc(OC(=O)CSc2nnc(-c3ccccc3Br)o2)c1
Protein RecA
  EC50: 5.7 µM (active)
[1]
  AC50: 3.09 µM (active)

## COc1ccc(-n2c3c(c(=O)[nH]c2=O)C(C(F)(F)F)(C(F)(F)F)NC(CC(C)C)=N3)cc1
Cytochrome P450 2C19
  AC50: 10 µM (inconclusive)
Cytochrome P450 1A2
  AC50: 39.8 µM (inconclusive)
Cytochrome P450 3A4
  AC50: 17.8 µM (inconclusive)
Cytochrome P450 2C9
  AC50: 28.2 µM (inconclusive)

## CNCC(O)CN(c1ccccc1)c1ccccc1 (configuration not stated)
Protein RecA
  EC50: 10.8 µM (active)
[1]
  AC50: 34.3 µM (active)

## C[C@H]1CCCC=CC2C[C@H](O)C[C@@H]2[C@H](O)/C=C\C(=O)O1 (some centres not stated)
Cytochrome P450 1A2
  AC50: 15.8 µM (inconclusive)
Cytochrome P450 3A4
  AC50: 31.6 µM (inconclusive)
Cytochrome P450 2C9
  AC50: 15.8 µM (inconclusive)

## COc1ccc(/C(O)=C\C=N\c2cc(C)on2)c(OC)c1
[2]
  EC50: > 195 µM (not active)
